“Also recorded” adds a separate entry of the source.

The record followed here is patent publication US20090325219A1, “DEVICE, SYSTEM AND ASSAY FOR MEASURING CELL MOTILITY” (The Queen's University of Belfast, priority 2006, published 2009).

What all share (type): cell-based, rat
The subject of experiment [1] is AY-27 cells. Briefly: Conventional scratch wound assay. The settings on record: compared to SdM and Mock-TGF. Here is the method:
Sub-confluent AY-27 cells were detached and 5×10^6 were seeded into 6-well tissue culture plates. The cells were grown to 100% confluency before treatment with Mock-TGF, SdM or 3 ng/ml TGF-β1 in duplicates for 24 h and 48 h. An in vitro “scratch wound” was created by scraping the confluent cell monolayer with a sterile pipette tip to make an approximate 1.0 mm gap. Three fixed points were marked in each well and phase-contrast images were captured at these same points over the 24 h and 48 h treatment course. The area of cells that had migrated beyond the ‘wound’ was estimated by superimposing a 5 mm×5 mm grid over the ‘wound’, and this was expressed as percentage when divided with the area of the ‘wound’.
(§1) FIG. 10 details results of a conventional motility assay (A) and the Matrigel invasion assay (B). […] Cells were treated with Mock-TGF (i), SdM (ii) or 3 ng.ml TGF-β1 (iii) and images were captured after 24 h and 48 h. The percentage of wound healing was calculated by counting the number of boxes at least half covered by cells in the 5 mm×5 mm grid-rule (A). […] Cells were treated with Mock-TGF (i), SdM (ii) or TGF-β1 (iii) and cells that passed successfully through the matrigel membrane after 24 h and after 48 h were Giemsa stained and enumerated.

The subject of experiment [2] is AY-27 cells. Kind of experiment: Conventional Matrigel invasion assay. The settings on record: 24 h and 48 h, compared to Mock-TGF and SdM, p<0.05 Student's t-test. The protocol:
FCS (10%) in 0.75 ml RPMI-1640 acted as the chemo-attractant. This was added to the lower compartment of 24-well BioCoat Matrigel invasion chambers (Becton Dickinson Labware, Bedford, Mass.) with an 8-μm pore polycarbonate filter coated with Matrigel. In the upper compartment, 8×10^5 cells/well in SdM were placed in triplicate wells and incubated for 24 h and 48 h at 37° C. in a humidified incubator with 5% CO2. After incubation, the cells that had passed through the filter into the lower wells were stained with Speedy-Diff Rapid Giemsa (Clin-Tech Ltd, Essex, UK. #61078, #61079, #61080) and counted by assessing 10 random high power fields images using ×400 magnification on a Leitz Labrodux K (Germany) light microscope.
as §1

Experiment [3] deals with AY-27 cells. Briefly: Assay of present invention (motility towards agarose chemo-attractant matrix). As to conditions: compared to Mock-TGF and SdM. The protocol:
Ten millimetre coverslips were seeded with AY-27 cells at a density of 5×10^5 and grown to 100% confluency in 12-well plates. The AY-27 cells at 100% confluency on 10 mm coverslips were removed (A) and washed vigorously using SdM medium (B).
In a separate 12-well culture plate, 1 ml of heated 2% agarose matrix consisting of 50% FCS and 50% supplemented RPMI thoroughly mixed was pipetted into each well, and allowed to cool and solidify (C).
A sterile 12 mm diameter metal ring was then used to cut out a circular area in the centre of the matrix (D & E) to provide a cell receiving zone and also to expose a portion of the supporting substrate to form the bridging portion between the cell receiving zone and the agent receiving matrix.
AY-27 cells on the 10 mm coverslip were then placed into the empty tissue receiving zone from which the agarose had been removed (F) such that the sample is spaced apart from and surrounded by the agarose (chemo-attractant agent receiving matrix).
An indentation provided in the cell receiving zone, allows reproducible locating of the coverslip including the cells to be tested in the cell receiving zone. The indentation is of suitable depth such that the top surface of the located slide is substantially flush with surrounding surface of the receiving surface. […]

As for “TGF-β1: Recombinant human TGF-β1 (R&D systems), a known promoter to tumour progression”, the “motility / wound closure” value in the experiment with AY-27 cells [1] (3 ng/ml TGF-β1, 24 h) is on record as “earlier wound closure”; in the experiment with AY-27 cells [1] (3 ng/ml TGF-β1, 48 h) it was “this effect did not persist”. Further, in the experiment on AY-27 cells [2], the “cells migrated across the matrigel” value is recorded as “Significantly more cells were present in the membrane; also recorded: significantly more TGF-β1 treated cells migrated across the matrigel”. The “numbers of migrating cells (grid boxes covered)” value with AY-27 cells [3] (3 ng/ml TGF-β1, 24 h) is recorded as “no significant differences”; with AY-27 cells [3] (3 ng/ml TGF-β1, 48 h, p<0.05 student t-test), “significantly more cells had migrated; also recorded: significantly greater numbers”.
